In US20170037028A1 (BAYER PHARMA AKTIENGESELLSCHAFT, priority 2013, published 2017):
Like-named read-outs stand apart in the source and are kept apart here.

Biological target: T1, GLUT1 (Homo sapiens, UniProt P11166)
T1 sequence (P11166 1-492): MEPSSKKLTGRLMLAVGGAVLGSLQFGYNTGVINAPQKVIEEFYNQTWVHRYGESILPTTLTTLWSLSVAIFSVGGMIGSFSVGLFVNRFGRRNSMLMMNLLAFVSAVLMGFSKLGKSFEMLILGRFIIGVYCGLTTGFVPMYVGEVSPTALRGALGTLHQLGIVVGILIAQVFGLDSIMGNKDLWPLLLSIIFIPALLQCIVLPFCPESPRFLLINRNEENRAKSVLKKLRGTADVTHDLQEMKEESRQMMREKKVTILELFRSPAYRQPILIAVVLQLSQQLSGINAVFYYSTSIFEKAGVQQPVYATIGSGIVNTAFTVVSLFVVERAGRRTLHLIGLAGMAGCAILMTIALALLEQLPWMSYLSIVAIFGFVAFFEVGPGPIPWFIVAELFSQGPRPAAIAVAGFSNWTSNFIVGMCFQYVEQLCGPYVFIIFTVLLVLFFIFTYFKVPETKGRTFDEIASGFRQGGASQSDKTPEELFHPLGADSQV
Assay: Indirect measurement of GLUT1 activity by quantification of intracellular ATP levels (glucose induced ATP increase)
Format: cell-based
Set-up: endogenous in cells; host or cells: DLD1 or CHO-K1
Conditions: read-out: IC50 regarding glucose induced ATP increase (GLUT1 inhibition)
Procedure, shortened: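 DLD1 or CHO-K1 cells were starved overnight in glucose-free medium with 1% FCS, then combined with an oxidative phosphorylation inhibitor. GLUT1 activity was read as glucose-induced ATP increase, GLUT2 as fructose-induced. Intracellular ATP was quantified by CellTiter-Glo luminescence.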

Cc1nn(CCCc2ccc(C#N)cc2)c(C)c1NC(=O)c1cc(C(N)=O)nc2cc(F)c(Cl)cc12 [Example 346, 6-chloro-N^4-{1-[3-(4-cyanophenyl)propyl]-3,5-dimethyl-1H-pyrazol-4-yl}-7-fluoroquinoline-2,4-dicarboxamide]
IC50: 0.6 nM

Cc1nn(CCCc2ccc(C#N)cc2)c(C)c1NC(=O)c1cc(C(N)=O)nc2ccccc12 [Example 347, N^4-{1-[3-(4-cyanophenyl)propyl]-3,5-dimethyl-1H-pyrazol-4-yl}quinoline-2,4-dicarboxamide]
IC50: 2.2 nM

Cc1nn(CCCc2ccc(C#N)cc2)c(C)c1NC(=O)c1cc(C(F)(F)F)nc2ccc(Br)cc12 [Example 348, 6-bromo-N-{1-[3-(4-cyanophenyl)propyl]-3,5-dimethyl-1H-pyrazol-4-yl}-2-(trifluoromethyl)quinoline-4-carboxamide]
IC50: 6.1 nM

COc1cc(C(=O)Nc2c(C)nn(CCCc3ccc(C#N)cc3)c2C)c2ccccc2n1 [Example 349, N-{1-[3-(4-cyanophenyl)propyl]-3,5-dimethyl-1H-pyrazol-4-yl}-2-methoxyquinoline-4-carboxamide]
IC50: 15.7 nM

Cc1nn(Cc2ccc(C#N)cn2)c(C)c1NC(=O)c1cc(C(N)=O)nc2ccc(Br)cc12 [Example 350, 6-bromo-N^4-{1-[(5-cyanopyridin-2-yl)methyl]-3,5-dimethyl-1H-pyrazol-4-yl}quinoline-2,4-dicarboxamide]
IC50: 1.1 nM

Cc1nn(Cc2ccc(C#N)cn2)c(C)c1NC(=O)c1cc(C(N)=O)nc2cc(F)c(Cl)cc12 [Example 351, 6-chloro-N^4-{1-[(5-cyanopyridin-2-yl)methyl]-3,5-dimethyl-1H-pyrazol-4-yl}-7-fluoroquinoline-2,4-dicarboxamide]
IC50: 1.6 nM

Cc1nn(Cc2ccc(C#N)cn2)c(C)c1NC(=O)c1cc(C(F)(F)F)nc2ccc(Br)cc12 [Example 353, 6-bromo-N-{1-[(5-cyanopyridin-2-yl)methyl]-3,5-dimethyl-1H-pyrazol-4-yl}-2-(trifluoromethyl)quinoline-4-carboxamide]
IC50: 2.3 nM

Cc1nn(Cc2ccc(C#N)cn2)c(C)c1NC(=O)c1cc(C(N)=O)nc2cc(F)c(F)cc12 [Example 354, N^4-{1-[(5-cyanopyridin-2-yl)methyl]-3,5-dimethyl-1H-pyrazol-4-yl}-6,7-difluoroquinoline-2,4-dicarboxamide]
IC50: 3.6 nM

Cc1nn(Cc2ccc(C#N)cn2)c(C)c1NC(=O)c1cc(C(N)=O)nc2ccccc12 [Example 355, N^4-{1-[(5-cyanopyridin-2-yl)methyl]-3,5-dimethyl-1H-pyrazol-4-yl}quinoline-2,4-dicarboxamide]
IC50: 3.9 nM

Cc1nn(Cc2ccc(C#N)cn2)c(C)c1NC(=O)c1cc(C(N)=O)nc2cc(F)ccc12 [Example 356, N^4-{1-[(5-cyanopyridin-2-yl)methyl]-3,5-dimethyl-1H-pyrazol-4-yl}-7-fluoroquinoline-2,4-dicarboxamide]
IC50: 9.3 nM

COc1cc(C(=O)Nc2c(C)nn(Cc3ccc(C#N)cn3)c2C)c2ccccc2n1 [Example 357, N-{1-[(5-cyanopyridin-2-yl)methyl]-3,5-dimethyl-1H-pyrazol-4-yl}-2-methoxyquinoline-4-carboxamide]
IC50: 28.8 nM

Cc1c(NC(=O)c2cc(C(N)=O)nc3ccc(Br)cc23)c(C(F)(F)F)nn1Cc1ccc(C#N)cn1 [Example 358, 6-bromo-N^4-{1-[(5-cyanopyridin-2-yl)methyl]-5-methyl-3-(trifluoromethyl)-1H-pyrazol-4-yl}quinoline-2,4-dicarboxamide]
IC50: 1.2 nM

Cc1c(NC(=O)c2cc(C(N)=O)nc3cc(F)c(Cl)cc23)c(C(F)(F)F)nn1Cc1ccc(C#N)cn1 [Example 359, 6-chloro-N^4-{1-[(5-cyanopyridin-2-yl)methyl]-5-methyl-3-(trifluoromethyl)-1H-pyrazol-4-yl}-7-fluoroquinoline-2,4-dicarboxamide]
IC50: 1.3 nM

Cc1c(NC(=O)c2cc(C(N)=O)nc3cc(F)ccc23)c(C(F)(F)F)nn1Cc1ccc(C#N)cn1 [Example 360, N^4-{1-[(5-cyanopyridin-2-yl)methyl]-5-methyl-3-(trifluoromethyl)-1H-pyrazol-4-yl}-7-fluoroquinoline-2,4-dicarboxamide]
IC50: 2 nM

Cc1c(NC(=O)c2cc(C(N)=O)nc3ccccc23)c(C(F)(F)F)nn1Cc1ccc(C#N)cn1 [Example 361, N^4-{1-[(5-cyanopyridin-2-yl)methyl]-5-methyl-3-(trifluoromethyl)-1H-pyrazol-4-yl}quinoline-2,4-dicarboxamide]
IC50: 4.4 nM

Cc1c(NC(=O)c2cc(C(F)(F)F)nc3ccc(Br)cc23)c(C(F)(F)F)nn1Cc1ccc(C#N)cn1 [Example 362, 6-bromo-N-{1-[(5-cyanopyridin-2-yl)methyl]-5-methyl-3-(trifluoromethyl)-1H-pyrazol-4-yl}-2-(trifluoromethyl)quinoline-4-carboxamide]
IC50: 5.5 nM

Cc1c(NC(=O)c2cc(C(N)=O)nc3cccc(F)c23)c(C(F)(F)F)nn1Cc1ccc(C#N)cn1 [Example 363, N^4-{1-[(5-cyanopyridin-2-yl)methyl]-5-methyl-3-(trifluoromethyl)-1H-pyrazol-4-yl}-5-fluoroquinoline-2,4-dicarboxamide]
IC50: 6 nM

Cc1c(NC(=O)c2cc(C(N)=O)nc3cc(F)c(F)cc23)c(C(F)(F)F)nn1Cc1ccc(C#N)cn1 [Example 364, N^4-{1-[(5-cyanopyridin-2-yl)methyl]-5-methyl-3-(trifluoromethyl)-1H-pyrazol-4-yl}-6,7-difluoroquinoline-2,4-dicarboxamide]
IC50: 6.6 nM

COc1cc(C(=O)Nc2c(C(F)(F)F)nn(Cc3ccc(C#N)cn3)c2C)c2ccccc2n1 [Example 365, N-{1-[(5-cyanopyridin-2-yl)methyl]-5-methyl-3-(trifluoromethyl)-1H-pyrazol-4-yl}-2-methoxyquinoline-4-carboxamide]
IC50: 26.6 nM

Cc1ccc2nc(C(N)=O)cc(C(=O)Nc3c(C(F)(F)F)nn(Cc4ccc(C#N)cc4)c3C)c2c1 [Example 366, N^4-[1-(4-cyanobenzyl)-5-methyl-3-(trifluoromethyl)-1H-pyrazol-4-yl]-6-methylquinoline-2,4-dicarboxamide]
IC50 (DLD1 cells, 0.1 mM glucose, 1 μM Rotenone, 15 min, CellTiter-Glo ATP readout, IC50 values standardized to cytochalasin B IC50 values): 7 nM

COC(=O)c1ccc(Cn2nc(C(F)(F)F)c(NC(=O)c3cc(C(N)=O)nc4cc(F)ccc34)c2C)cc1 [Example 367, methyl 4-{[4-{[(2-carbamoyl-7-fluoroquinolin-4-yl)carbonyl]amino}-5-methyl-3-(trifluoromethyl)-1H-pyrazol-1-yl]methyl}benzoate]
IC50: 2.3 nM

Cc1c(NC(=O)c2cc(C(N)=O)nc3cc(F)ccc23)c(C(F)(F)F)nn1Cc1ccc(C(=O)O)cc1 [Example 368, 4-{[4-{[(2-carbamoyl-7-fluoroquinolin-4-yl)carbonyl]amino}-5-methyl-3-(trifluoromethyl)-1H-pyrazol-1-yl]methyl}benzoic acid]
IC50: 418 nM

Cc1c(NC(=O)c2cc(C(N)=O)nc3cc(F)ccc23)c(C(F)(F)F)nn1Cc1ccc(C(N)=O)cc1 [Example 369, N^4-[1-(4-carbamoylbenzyl)-5-methyl-3-(trifluoromethyl)-1H-pyrazol-4-yl]-7-fluoroquinoline-2,4-dicarboxamide]
IC50: 12.4 nM

CNC(=O)c1ccc(Cn2nc(C(F)(F)F)c(NC(=O)c3cc(C(N)=O)nc4cc(F)ccc34)c2C)cc1 [Example 370, 7-fluoro-N^4-{5-methyl-1-[4-(methylcarbamoyl)benzyl]-3-(trifluoromethyl)-1H-pyrazol-4-yl}quinoline-2,4-dicarboxamide]
IC50: 12.8 nM

Cc1c(NC(=O)c2cc(C(N)=O)nc3cc(F)ccc23)c(C(F)(F)F)nn1Cc1ccc(C(=O)N(C)C)cc1 [Example 371, N^4-{1-[4-(dimethylcarbamoyl)benzyl]-5-methyl-3-(trifluoromethyl)-H-pyrazol-4-yl}-7-fluoroquinoline-2,4-dicarboxamide]
IC50: 243 nM

Cc1c(NC(=O)c2cc(C(N)=O)nc3cc(F)ccc23)c(C(F)(F)F)nn1Cc1ccc(C(=O)N2CCC2)cc1 [Example 372, N^4-{1-[4-(azetidin-1-ylcarbonyl)benzyl]-5-methyl-3-(trifluoromethyl)-1H-pyrazol-4-yl}-7-fluoroquinoline-2,4-dicarboxamide]
IC50: 20 nM

COCCNC(=O)c1ccc(Cn2nc(C(F)(F)F)c(NC(=O)c3cc(C(N)=O)nc4cc(F)ccc34)c2C)cc1 [Example 373, 7-fluoro-N^4-[1-{4-[(2-methoxyethyl)carbamoyl]benzyl}-5-methyl-3-(trifluoromethyl)-1H-pyrazol-4-yl]quinoline-2,4-dicarboxamide]
IC50: 17.5 nM

Cc1c(NC(=O)c2cc(C(N)=O)nc3cc(F)ccc23)c(C(F)(F)F)nn1Cc1ccc(C(=O)NCCN(C)C)cc1 [Example 374, N^4-[1-(4-{[2-(dimethylamino)ethyl]carbamoyl}benzyl)-5-methyl-3-(trifluoromethyl)-1H-pyrazol-4-yl]-7-fluoroquinoline-2,4-dicarboxamide]
IC50: 895 nM
